Source: patent publication US20240383886A1, “Protein Tyrosine Phosphatase Degraders and Methods of Use Thereof” (CALICO LIFE SCIENCES LLC, priority 2019, published 2024)

Experiments:
[1] = molecular target: T1, PTPN2 (Homo sapiens, UniProt P17706); assay: HiBiT-Degradation 293T.109 PTPN2 (Nano-Glo HiBiT Lytic Assay); type: cell-based; conditions: 293T.109 (HiBiT-PTPN2) cells, 24.0 hours
T1 construct: expressed in transfected cells; host or cells: 293T (293T.109 HiBiT-PTPN2 line; parental 293T WT from ATCC)
T1 sequence (P17706 1-415): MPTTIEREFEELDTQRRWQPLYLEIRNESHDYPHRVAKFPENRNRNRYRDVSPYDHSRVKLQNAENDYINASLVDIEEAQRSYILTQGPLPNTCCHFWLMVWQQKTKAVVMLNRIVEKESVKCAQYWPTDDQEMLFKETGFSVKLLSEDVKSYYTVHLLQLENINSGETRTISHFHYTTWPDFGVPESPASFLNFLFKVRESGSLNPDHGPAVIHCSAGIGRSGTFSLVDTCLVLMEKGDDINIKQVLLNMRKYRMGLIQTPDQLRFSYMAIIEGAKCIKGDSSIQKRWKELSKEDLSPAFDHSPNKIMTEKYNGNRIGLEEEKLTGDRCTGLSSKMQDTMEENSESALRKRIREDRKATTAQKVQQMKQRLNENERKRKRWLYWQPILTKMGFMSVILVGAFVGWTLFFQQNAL
How it was run: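 293T cells ectopically expressing N-terminally HiBiT-tagged PTPN2 were seeded at 5000 cells/well. They were treated with an 11-point half-log titration from 10 μM, in duplicate, for 24 hours at 37° C., 5% CO2. Remaining tagged PTPN2 was quantified by lytic HiBiT luminescence against untreated and no-reagent controls.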

[2] = system: PTPN2; assay: HiBiT-Degradation B16F10.4 PTPN2; type: cell-based; conditions: B16F10.4 cells, 24.0 hours

| Compound | DC50 [1] | DC50 [2] |
| --- | --- | --- |
| CC(C)(Nc1cccc2c1C(=O)N(C1CCC(=O)NC1=O)C2=O)c1cn(CCOCCC(=O)NCCOc2ccc3cc(O)c(N4CC(=O)NS4(=O)=O)c(F)c3c2)nn1 (stereo not drawn) [Example 37] | ≥ 1000 nM | ≥ 1000 nM |
| O=C(CCC1CCN(C(=O)CNc2cccc3c2C(=O)N(C2CCC(=O)NC2=O)C3=O)CC1)NCCOc1ccc2cc(O)c(N3CC(=O)NS3(=O)=O)c(F)c2c1 (stereo not drawn) [Example 41] | 200 to 1000 nM | ≥ 1000 nM |
| Cn1c(=O)n(C2CCC(=O)NC2=O)c2ccc(C3CCN(C(=O)C(=O)Nc4ccc5c(F)c(N6CC(=O)NS6(=O)=O)c(O)cc5c4)CC3)cc21 (stereo not drawn) [Example 87, 2-[4-[1-(2,6-dioxo-3-piperidyl)-3-methyl-2-oxo-benzimidazol-5-yl]-1-piperidyl]-N-[5-fluoro-7-hydroxy-6-(1,1,4-trioxo-1,2,5-thiadiazolidin-2-yl)-2-naphthyl]-2-oxo-acetamide] | 10 to 50 nM | 10 to 50 nM |
| Cn1c(=O)n(C2CCC(=O)NC2=O)c2ccc(C3CCN(CCC(=O)NCCOc4ccc5cc(O)c(N6CC(=O)NS6(=O)=O)c(F)c5c4)CC3)cc21 (stereo not drawn) [Example 6, N-(2-((7-(1,1-dioxido-4-oxo-1,2,5-thiadiazolidin-2-yl)-8-fluoro-6-hydroxynaphthalen-2-yl)oxy)ethyl)-3-(4-(1-(2,6-dioxopiperidin-3-yl)-3-methyl-2-oxo-2,3-dihydro-1H-benzo[d]imidazol-5-yl)piperidin-1-yl)propanamide] | 50 to 200 nM | ≥ 1000 nM |
| O=C1CCC(N2Cc3cc(NCc4cnn(CCC(=O)Nc5ccc6c(F)c(N7CC(=O)NS7(=O)=O)c(O)cc6c5)c4)ccc3C2=O)C(=O)N1 (stereo not drawn) [Example 16, 3-[4-[[[2-(2,6-dioxo-3-piperidyl)-1-oxo-isoindolin-5-yl]amino]methyl]pyrazol-1-yl]-N-[5-fluoro-7-hydroxy-6-(1,1,4-trioxo-1,2,5-thiadiazolidin-2-yl)-2-naphthyl]propanamide] | 50 to 200 nM | 200 to 1000 nM |
| Cn1c(=O)n(C2CCC(=O)NC2=O)c2ccc(N3CCC(CC(=O)N4CCC[C@H](COc5ccc6cc(O)c(N7CC(=O)NS7(=O)=O)c(F)c6c5)C4)CC3)cc21 (stereo partly drawn) [Example 143, 3-[5-[4-[2-[(3S)-3-[[8-fluoro-6-hydroxy-7-(1,1,4-trioxo-1,2,5-thiadiazolidin-2-yl)-2-naphthyl]oxymethyl]-1-piperidyl]-2-oxo-ethyl]-1-piperidyl]-3-methyl-2-oxo-benzimidazol-1-yl]piperidine-2,6-dione] | 200 to 1000 nM | 200 to 1000 nM |
| Cn1nc(C2CCC(=O)NC2=O)c2ccc(C3CCN(CC(=O)Nc4ccc5c(F)c(N6CC(=O)NS6(=O)=O)c(O)cc5c4)CC3)cc21 (stereo not drawn) [Example 28, 2-[4-[3-(2,6-dioxo-3-piperidyl)-1-methyl-indazol-6-yl]-1-piperidyl]-N-[5-fluoro-7-hydroxy-6-(1,1,4-trioxo-1,2,5-thiadiazolidin-2-yl)-2-naphthyl]acetamide] | < 10 nM | 50 to 200 nM |
| O=C1CCC(N2C(=O)c3cccc(NCC(=O)N4CCC(C(=O)NCCOc5ccc6cc(O)c(N7CC(=O)NS7(=O)=O)c(F)c6c5)CC4)c3C2=O)C(=O)N1 (stereo not drawn) [Example 1, N-(2-((7-(1,1-dioxido-4-oxo-1,2,5-thiadiazolidin-2-yl)-8-fluoro-6-hydroxynaphthalen-2-yl)oxy)ethyl)-1-((2-(2,6-dioxopiperidin-3-yl)-1,3-dioxoisoindolin-4-yl)glycyl)piperidine-4-carboxamide] | 200 to 1000 nM | ≥ 1000 nM |
| Cn1c(=O)n([C@@H]2CCC(=O)NC2=O)c2ccc(C3CCN(CC(=O)NCCOc4ccc5cc(O)c(N6CC(=O)NS6(=O)=O)c(F)c5c4)CC3)cc21 [Example 92, 2-[4-[1-[(3R)-2,6-dioxo-3-piperidyl]-3-methyl-2-oxo-benzimidazol-5-yl]-1-piperidyl]-N-[2-[[8-fluoro-6-hydroxy-7-(1,1,4-trioxo-1,2,5-thiadiazolidin-2-yl)-2-naphthyl]oxy]ethyl]acetamide] | 50 to 200 nM | 200 to 1000 nM |
| Cn1c(=O)n(C2CCC(=O)NC2=O)c2ccc(C3CCN(CCC(=O)N4CC[C@@H](c5ccc6cc(O)c(N7CC(=O)NS7(=O)=O)c(F)c6c5)C4)CC3)cc21 (stereo partly drawn) [Example 145] | 10 to 50 nM | 50 to 200 nM |
| Cn1c(=O)n(C2CCC(=O)NC2=O)c2ccc(C3CCN(C(=O)Cn4cc(-c5ccc6c(F)c(N7CC(=O)NS7(=O)=O)c(O)cc6c5)cn4)CC3)cc21 (stereo not drawn) [Example 74, 3-[5-[1-[2-[4-[5-fluoro-7-hydroxy-6-(1,1,4-trioxo-1,2,5-thiadiazolidin-2-yl)-2-naphthyl]pyrazol-1-yl]acetyl]-4-piperidyl]-3-methyl-2-oxo-benzimidazol-1-yl]piperidine-2,6-dione] | < 10 nM | 50 to 200 nM |
| Cn1c(=O)n(C2CCC(=O)NC2=O)c2ccc(C3CCN(CC(=O)NCCOc4ccc5cc(O)c(N6CC(=O)NS6(=O)=O)c(Cl)c5c4)CC3)cc21 (stereo not drawn) [Example 100, N-[2-[[8-chloro-6-hydroxy-7-(1,1,4-trioxo-1,2,5-thiadiazolidin-2-yl)-2-naphthyl]oxy]ethyl]-2-[4-[1-(2,6-dioxo-3-piperidyl)-3-methyl-2-oxo-benzimidazol-5-yl]-1-piperidyl]acetamide] | 200 to 1000 nM | 200 to 1000 nM |
| Cn1c(=O)n(C2CCC(=O)NC2=O)c2ccc(-c3cnn(CCC(=O)Nc4ccc5c(F)c(N6CC(=O)NS6(=O)=O)c(O)cc5c4)c3)cc21 (stereo not drawn) [Example 173, N-(6-(1,1-dioxido-4-oxo-1,2,5-thiadiazolidin-2-yl)-5-fluoro-7-hydroxynaphthalen-2-yl)-3-(4-(1-(2,6-dioxopiperidin-3-yl)-3-methyl-2-oxo-2,3-dihydro-1H-benzo[d]imidazol-5-yl)-1H-pyrazol-1-yl)propanamide] | 10 to 50 nM | 50 to 200 nM |
| O=C1CCC(N2C(=O)c3cccc(NCc4cn(C5CCN(CC(=O)Nc6ccc7c(F)c(N8CC(=O)NS8(=O)=O)c(O)cc7c6)CC5)nn4)c3C2=O)C(=O)N1 (stereo not drawn) [Example 67] | 200 to 1000 nM | ≥ 1000 nM |
| O=C(CCOCCn1cc(CNc2cccc3c2C(=O)N(C2CCC(=O)NC2=O)C3=O)nn1)NCCOc1ccc2cc(O)c(N3CC(=O)NS3(=O)=O)c(F)c2c1 (stereo not drawn) [Example 48] | ≥ 1000 nM | ≥ 1000 nM |
| Cn1c(=O)n(C2CCC(=O)NC2=O)c2ccc(N3CCC(O)(CC(=O)Nc4ccc5c(F)c(N6CC(=O)NS6(=O)=O)c(O)cc5c4)CC3)cc21 (stereo not drawn) [Example 82, 2-[1-[1-(2,6-dioxo-3-piperidyl)-3-methyl-2-oxo-benzimidazol-5-yl]-4-hydroxy-4-piperidyl]-N-[5-fluoro-7-hydroxy-6-(1,1,4-trioxo-1,2,5-thiadiazolidin-2-yl)-2-naphthyl]acetamide] | < 10 nM | 200 to 1000 nM |
| O=C1CCC(N2Cc3c(OCc4cn(CCC(=O)Nc5ccc6c(F)c(N7CC(=O)NS7(=O)=O)c(O)cc6c5)nn4)cccc3C2=O)C(=O)N1 (stereo not drawn) [Example 19, N-(6-(1,1-dioxido-4-oxo-1,2,5-thiadiazolidin-2-yl)-5-fluoro-7-hydroxynaphthalen-2-yl)-3-(4-(((2-(2,6-dioxopiperidin-3-yl)-1-oxoisoindolin-4-yl)oxy)methyl)-1H-1,2,3-triazol-1-yl)propanamide] | 50 to 200 nM | 200 to 1000 nM |
| Cn1nc(C2CCC(=O)NC2=O)c2ccc(C3CCN(C(=O)Cn4cc(-c5ccc6c(F)c(N7CC(=O)NS7(=O)=O)c(O)cc6c5)cn4)CC3)cc21 (stereo not drawn) [Example 79, 3-[6-[1-[2-[4-[5-fluoro-7-hydroxy-6-(1,1,4-trioxo-1,2,5-thiadiazolidin-2-yl)-2-naphthyl]pyrazol-1-yl]acetyl]-4-piperidyl]-1-methyl-indazol-3-yl]piperidine-2,6-dione] | 10 to 50 nM | 200 to 1000 nM |
| Cn1c(=O)n(C2CCC(=O)NC2=O)c2ccc(Nc3ccc(CNC(=O)c4ccc5c(F)c(N6CC(=O)NS6(=O)=O)c(O)cc5c4)cc3)cc21 (stereo not drawn) [Example 148, N-[[4-[[1-(2,6-dioxo-3-piperidyl)-3-methyl-2-oxo-benzimidazol-5-yl]amino]phenyl]methyl]-5-fluoro-7-hydroxy-6-(1,1,4-trioxo-1,2,5-thiadiazolidin-2-yl)naphthalene-2-carboxamide] | 200 to 1000 nM | 200 to 1000 nM |
| Cn1c(=O)n(C2CCC(=O)NC2=O)c2ccc(C3CCN(Cc4cnn(-c5ccc6cc(O)c(N7CC(=O)NS7(=O)=O)c(F)c6c5)c4)CC3)cc21 (stereo not drawn) [Example 125, 3-[5-[1-[[1-[8-fluoro-6-hydroxy-7-(1,1,4-trioxo-1,2,5-thiadiazolidin-2-yl)-2-naphthyl]pyrazol-4-yl]methyl]-4-piperidyl]-3-methyl-2-oxo-benzimidazol-1-yl]piperidine-2,6-dione] | 50 to 200 nM | 200 to 1000 nM |
| Cn1c(=O)n(C2CCC(=O)NC2=O)c2ccc(C3CCN(CCCCOc4ccc5cc(O)c(N6CC(=O)NS6(=O)=O)c(F)c5c4)CC3)cc21 (stereo not drawn) [Example 128, 3-[5-[1-[4-[[8-fluoro-6-hydroxy-7-(1,1,4-trioxo-1,2,5-thiadiazolidin-2-yl)-2-naphthyl]oxy]butyl]-4-piperidyl]-3-methyl-2-oxo-benzimidazol-1-yl]piperidine-2,6-dione] | 50 to 200 nM | 200 to 1000 nM |
